Patent US20240016781A1, “TREATMENT OF KRAS MUTANT CANCERS” (MEI Pharma, Inc., priority 2020, published 2024)
pEC50, pIC50: −log10 of the molar value. Read-outs that look alike come from different tables or passages of the source.

Experiments:
[1] = tested on: Huh-7 xenografts; experiment: CIVO intratumoral microinjection, Huh-7 xenografts; assay type: in vivo; details: Huh-7 liver cancer model
Text: FIG. 6 depicts the CIVO injection array.
CC3 is not elevated over background levels at any injection site.

[2] = tested on: NCI-H1792; experiment: 72-hour CellTiter-Glo 2.0 growth inhibition screen (single agent, 9x9 combination dose matrix); assay type: cell-based;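 on Best CI Level: inhibition effect level at which the best CI was calculated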
[3] = tested on: Calu-1; experiment: as above; assay type: cell-based;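 on Best CI Level: inhibition effect level at which the best CI was calculated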
[4] = tested on: MIA PaCa-2; experiment: as above; assay type: cell-based;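 on Best CI Level: inhibition effect level at which the best CI was calculated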
[5] = tested on: NCI-H23; experiment: as above; assay type: cell-based;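 on Best CI Level: inhibition effect level at which the best CI was calculated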
[6] = tested on: NCI-H2030; experiment: as above; assay type: cell-based; details: for Emax: NCI-H2030;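 on Best CI Level: inhibition effect level at which the best CI was calculated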
[7] = NCl-H1792, Lung, Additional Single Agent Responses (inhibition, % I), 72 h
[8] = NCl-H1792, Lung, growth inhibition (GI) curve, single agent, 72 h
[9] = NCl-H1792, Lung, growth inhibition (GI), AUC, single agent, 72 h
[10] = Calu-1, Lung, Additional Single Agent Responses (inhibition, % I), 72 h
[11] = Calu-1, Lung, growth inhibition (GI) curve, single agent, 72 h
[12] = Calu-1, Lung, growth inhibition (GI), AUC, single agent, 72 h
[13] = MIA PaCa-2, Pancreas, Additional Single Agent Responses (inhibition, % I), 72 h
[14] = MIA PaCa-2, Pancreas, growth inhibition (GI) curve, single agent, 72 h
[15] = MIA PaCa-2, Pancreas, growth inhibition (GI), AUC, single agent, 72 h
[16] = NCl-H23, Lung, Additional Single Agent Responses (inhibition, % I), 72 h
[17] = NCl-H23, Lung, growth inhibition (GI) curve, single agent, 72 h
[18] = NCl-H23, Lung, growth inhibition (GI), AUC, single agent, 72 h
[19] = NCl-H2030, Lung, Additional Single Agent Responses (inhibition, % I), 72 h
[20] = NCl-H2030, Lung, growth inhibition (GI) curve, single agent, 72 h
[21] = NCl-H2030, Lung, growth inhibition (GI), AUC, single agent, 72 h
[22] = NCl-H1792 (KRAS G12C), enhancer + MEI-522 (Voruciclib), 72 h
[23] = enhancer combined with MEI-522 (Voruciclib), NCl-H1792 (Lung), 72 hours, inhibition data
[24] = Calu-1 (KRAS G12C), enhancer + MEI-522 (Voruciclib), 72 h;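 on Best CI Level: inhibition effect level at which the best CI was calculated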
[25] = enhancer combined with MEI-522 (Voruciclib), Calu-1 (Lung), 72 hours, inhibition data
[26] = Homo sapiens, MIA PaCa-2, Pancreas, Additional Single Agent Responses (inhibition, % I), 72 h
[27] = MIA PaCa-2 (KRAS G12C), enhancer + MEI-522 (Voruciclib), 72 h;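 on Best CI Level: inhibition effect level at which the best CI was calculated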
[28] = enhancer combined with MEI-522 (Voruciclib), MIA PaCa-2 (Pancreas), 72 hours, inhibition data
[29] = Homo sapiens, NCI-H23, NCl-H23, Lung, Additional Single Agent Responses (inhibition, % I), 72 h
[30] = NCl-H23 (KRAS G12C), enhancer + MEI-522 (Voruciclib), 72 h
[31] = enhancer combined with MEI-522 (Voruciclib), NCl-H23 (Lung), 72 hours, inhibition data
[32] = NCl-H2030 (KRAS G12C), enhancer + MEI-522 (Voruciclib), 72 h
[33] = enhancer combined with MEI-522 (Voruciclib), NCl-H2030 (Lung), 72 hours, inhibition data

CN1CC[C@@H](c2c(O)cc(O)c3c(=O)cc(-c4ccc(C(F)(F)F)cc4Cl)oc23)[C@@H]1CO [Voruciclib, (+)-trans-2-(2-Chloro-4-trifluoromethylphenyl)-5,7-dihydroxy-8-(2-hydroxymethyl-1-methylpyrrolidin-3-yl)-chromen-4-one]
apoptotic cells (CC3) [1]: do not result in an increase in apoptotic cells

CN1CC[C@@H](c2c(O)cc(O)c3c(=O)cc(-c4ccc(C(F)(F)F)cc4Cl)oc23)[C@@H]1CO [MEI-522(Voruciclib)]
pEC50 [2, 7]: 5.87
pIC50 [2, 7]: 5.87
Response Area [2, 7]: 2.83
Max Response (% I) ([2]; NCl-H1792, Lung, Additional Single Agent Responses, 72 h): 98 % I
pEC50 [2, 8]: 5.72
GI50 [2, 8]: 1440 nM
Response Area [2, 9]: 5.24
Max Response (% GI) ([2]; NCl-H1792, Lung, growth inhibition (GI), single agent, 72 h): 192 % GI
pEC50 [3, 10]: 5.73
pIC50 [3, 10]: 5.70
Response Area [3, 10]: 2.48
Max Response (% I) ([3]; Calu-1, Lung, Additional Single Agent Responses, 72 h): 90 % I
pEC50 [3, 11]: 5.68
GI50 [3, 11]: 1680 nM
Response Area [3, 12]: 4.35
Max Response (% GI) ([3]; Calu-1, Lung, growth inhibition (GI), single agent, 72 h): 159 % GI
pEC50 [4, 13]: 6.05
pIC50 [4, 13]: 5.97
Response Area [4, 13]: 2.64
Max Response (% I) ([4]; MIA PaCa-2, Pancreas, Additional Single Agent Responses, 72 h): 85 % I
pEC50 [4, 14]: 5.95
GI50 [4, 14]: 868 nM
Response Area [4, 15]: 3.63
Max Response (% GI) ([4]; MIA PaCa-2, Pancreas, growth inhibition (GI), single agent, 72 h): 116 % GI
pEC50 [5, 16]: 5.95
pIC50 [5, 16]: 5.93
Response Area [5, 16]: 2.83
Max Response (% I) ([5]; NCl-H23, Lung, Additional Single Agent Responses, 72 h): 96 % I
pEC50 [5, 17]: 5.75
GI50 [5, 17]: 1260 nM
Response Area [5, 18]: 5.00
Max Response (% GI) ([5]; NCl-H23, Lung, growth inhibition (GI), single agent, 72 h): 181 % GI
pEC50 [6, 19]: 5.98
pIC50 [6, 19]: 5.97
Response Area [6, 19]: 2.92
Max Response (% I) ([6]; NCl-H2030, Lung, Additional Single Agent Responses, 72 h): 98 % I
pEC50 [6, 20]: 5.77
GI50 [6, 20]: 1130 nM
Response Area [6, 21]: 5.28
Max Response (% GI) ([6]; NCl-H2030, Lung, growth inhibition (GI), single agent, 72 h): 188 % GI

C=CC(=O)N1CCN(c2nc(=O)n(-c3c(C)ccnc3C(C)C)c3nc(-c4c(O)cccc4F)c(F)cc23)[C@@H](C)C1 [AMG510]
pEC50 ([2]; Homo sapiens, NCI-H1792, NCl-H1792, Lung, Additional Single Agent Responses (inhibition, % I), 72 h): 8.38
Emax ([2]; Homo sapiens, NCI-H1792, NCl-H1792, Lung, Additional Single Agent Responses, 72 h, read-out: Max Response (% I)): 29%
Emax ([2]; Homo sapiens, NCI-H1792, NCl-H1792, Lung, growth inhibition (GI), single agent, 72 h, read-out: Max Response (% GI)): 37%
Best CI [2, 22]: 0.36
Bliss Volume [2, 22]: 5.76
HSA volume [2, 22]: 3.59
Loewe Volume [2, 22]: 4.64
Synergy Score [2, 22]: 3.62
Response Area [2, 7]: 1.05
Response Area [2, 9]: 1.34
Best CI [2, 23]: 0.46
Bliss Volume [2, 23]: 2.25
HSA volume [2, 23]: 2.86
Loewe Volume [2, 23]: 3.31
Synergy Score [2, 23]: 1.87
Best CI Level ([2]; enhancer combined with MEI-522 (Voruciclib), NCl-H1792 (Lung), 72 hours, inhibition data, unit assumed): 35%
Best CI [3, 24]: 0.80
Bliss Volume [3, 24]: 2.90
HSA volume [3, 24]: 2.88
Loewe Volume [3, 24]: 2.66
Synergy Score [3, 24]: 4.52
Response Area [3, 10]: 1.72
Response Area [3, 12]: 2.29
pEC50 ([3]; Homo sapiens, Calu-1, 72 h, Calu-1, Lung, Additional Single Agent Responses (inhibition, % I), 72 h): 8.55
pEC50 ([3]; Homo sapiens, Calu-1, 72 h, Calu-1, Lung, growth inhibition (GI) curve, single agent, 72 h): 8.54
Emax ([3]; Homo sapiens, Calu-1, Lung, Additional Single Agent Responses, 72 h, read-out: Max Response (% I)): 37%
Emax ([3]; Homo sapiens, Calu-1, Lung, growth inhibition (GI), single agent, 72 h, read-out: Max Response (% GI)): 48%
Best CI [3, 25]: 0.72
Best CI Level [3, 25]: 55
Bliss Volume [3, 25]: −0.15
HSA volume [3, 25]: 1.55
Loewe Volume [3, 25]: 1.28
Synergy Score [3, 25]: 1.42
pEC50 [4, 26]: 8.24
pIC50 [4, 26]: 7.83
Emax ([4]; Homo sapiens, MIA PaCa-2, Pancreas, Additional Single Agent Responses, 72 h, read-out: Max Response (% I)): 63%
GI50 ([4]; Homo sapiens, MIA PaCa-2, Pancreas, growth inhibition (GI) curve, single agent, 72 h): 9.2 nM
Emax ([4]; Homo sapiens, MIA PaCa-2, Pancreas, growth inhibition (GI), single agent, 72 h, read-out: Max Response (% GI)): 77%
Best CI [4, 27]: 0.65
Bliss Volume [4, 27]: 3.75
HSA volume [4, 27]: 5.03
Loewe Volume [4, 27]: 4.68
Synergy Score [4, 27]: 6.04
Response Area [4, 13]: 3.12
Response Area [4, 15]: 3.77
Best CI [4, 28]: 0.60
Best CI Level [4, 28]: 75
Bliss Volume [4, 28]: 0.19
HSA volume [4, 28]: 2.76
Loewe Volume [4, 28]: 2.52
Synergy Score [4, 28]: 2.16
pEC50 [5, 29]: 8.17
pIC50 [5, 29]: 6.80
Emax ([5]; Homo sapiens, NCI-H23, NCl-H23, Lung, Additional Single Agent Responses, 72 h, read-out: Max Response (% I)): 56%
GI50 ([5]; Homo sapiens, NCI-H23, NCl-H23, Lung, growth inhibition (GI) curve, single agent, 72 h): 23.2 nM
Emax ([5]; Homo sapiens, NCI-H23, NCl-H23, Lung, growth inhibition (GI), single agent, 72 h, read-out: Max Response (% GI)): 71%
Best CI [5, 30]: 0.76
Bliss Volume [5, 30]: 8.97
HSA volume [5, 30]: 6.92
Loewe Volume [5, 30]: 6.28
Synergy Score [5, 30]: 8.27
Response Area [5, 16]: 2.82
Response Area [5, 18]: 3.60
Best CI [5, 31]: 0.53
Best CI Level [5, 31]: 80
Bliss Volume [5, 31]: 1.69
HSA volume [5, 31]: 4.54
Loewe Volume [5, 31]: 3.98
Synergy Score [5, 31]: 3.46
pEC50 ([6]; Homo sapiens, NCI-H2030, 72 h, NCl-H2030, Lung, Additional Single Agent Responses (inhibition, % I), 72 h): 8.37
pEC50 ([6]; Homo sapiens, NCI-H2030, 72 h, NCl-H2030, Lung, growth inhibition (GI) curve, single agent, 72 h): 8.36
Emax ([6]; Homo sapiens, NCl-H2030, Lung, Additional Single Agent Responses, 72 h, read-out: Max Response (% I)): 38%
Emax ([6]; Homo sapiens, NCl-H2030, Lung, growth inhibition (GI), single agent, 72 h, read-out: Max Response (% GI)): 47%
Best CI [6, 32]: 0.47
Bliss Volume [6, 32]: 6.35
HSA volume [6, 32]: 4.90
Loewe Volume [6, 32]: 4.51
Synergy Score [6, 32]: 5.13
Response Area [6, 19]: 1.65
Response Area [6, 21]: 2.05
Best CI [6, 33]: 0.70
Best CI Level [6, 33]: 50
Bliss Volume [6, 33]: 1.77
HSA volume [6, 33]: 3.51
Loewe Volume [6, 33]: 3.26
Synergy Score [6, 33]: 2.04
